In ChEMBL document CHEMBL1130843, “Design and synthesis of an orally active GPIIb/IIIa antagonist based on a phenylpiperazine scaffold” (Bioorg Med Chem Lett, 1998):

Legend:
[1] = biological target: Integrin alpha-IIb/beta-3 (Homo sapiens, UniProt P05106+P08514); assay: Inhibition of fibrinogen binding to platelet glycoprotein alpha IIb beta-3 integrin in ELISA
Cavia porcellus = organism: Cavia porcellus; assay: Compound was tested for inhibition of ADP induced platelet aggregation in guinea pig; format: functional
Homo sapiens = organism: Homo sapiens; assay: Compound was tested for inhibition of ADP induced platelet aggregation in human platelet-rich plasma; format: functional

Integrin alpha-IIb/beta-3, sequence (P05106 27-788 limits assumed): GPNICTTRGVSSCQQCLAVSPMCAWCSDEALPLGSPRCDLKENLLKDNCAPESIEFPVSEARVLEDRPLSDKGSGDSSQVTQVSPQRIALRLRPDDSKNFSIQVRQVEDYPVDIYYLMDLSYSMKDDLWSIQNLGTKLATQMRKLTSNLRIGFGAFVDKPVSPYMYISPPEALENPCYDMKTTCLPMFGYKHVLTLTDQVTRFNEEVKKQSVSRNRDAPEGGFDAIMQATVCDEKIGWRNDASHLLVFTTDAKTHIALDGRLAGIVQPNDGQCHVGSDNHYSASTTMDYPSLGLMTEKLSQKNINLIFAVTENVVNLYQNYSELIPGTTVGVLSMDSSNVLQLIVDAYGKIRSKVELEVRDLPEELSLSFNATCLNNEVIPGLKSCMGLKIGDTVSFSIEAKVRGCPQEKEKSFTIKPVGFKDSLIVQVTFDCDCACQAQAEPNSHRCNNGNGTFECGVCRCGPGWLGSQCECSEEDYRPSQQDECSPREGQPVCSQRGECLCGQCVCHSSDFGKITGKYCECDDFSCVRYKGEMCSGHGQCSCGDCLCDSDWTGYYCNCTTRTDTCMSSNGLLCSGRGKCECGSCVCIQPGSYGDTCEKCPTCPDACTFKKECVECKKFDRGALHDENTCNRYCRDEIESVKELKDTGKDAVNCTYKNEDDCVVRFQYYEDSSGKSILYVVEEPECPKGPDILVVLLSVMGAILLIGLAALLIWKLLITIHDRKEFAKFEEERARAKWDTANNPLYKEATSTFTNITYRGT
Integrin alpha-IIb/beta-3, sequence (P08514 32-887 limits assumed): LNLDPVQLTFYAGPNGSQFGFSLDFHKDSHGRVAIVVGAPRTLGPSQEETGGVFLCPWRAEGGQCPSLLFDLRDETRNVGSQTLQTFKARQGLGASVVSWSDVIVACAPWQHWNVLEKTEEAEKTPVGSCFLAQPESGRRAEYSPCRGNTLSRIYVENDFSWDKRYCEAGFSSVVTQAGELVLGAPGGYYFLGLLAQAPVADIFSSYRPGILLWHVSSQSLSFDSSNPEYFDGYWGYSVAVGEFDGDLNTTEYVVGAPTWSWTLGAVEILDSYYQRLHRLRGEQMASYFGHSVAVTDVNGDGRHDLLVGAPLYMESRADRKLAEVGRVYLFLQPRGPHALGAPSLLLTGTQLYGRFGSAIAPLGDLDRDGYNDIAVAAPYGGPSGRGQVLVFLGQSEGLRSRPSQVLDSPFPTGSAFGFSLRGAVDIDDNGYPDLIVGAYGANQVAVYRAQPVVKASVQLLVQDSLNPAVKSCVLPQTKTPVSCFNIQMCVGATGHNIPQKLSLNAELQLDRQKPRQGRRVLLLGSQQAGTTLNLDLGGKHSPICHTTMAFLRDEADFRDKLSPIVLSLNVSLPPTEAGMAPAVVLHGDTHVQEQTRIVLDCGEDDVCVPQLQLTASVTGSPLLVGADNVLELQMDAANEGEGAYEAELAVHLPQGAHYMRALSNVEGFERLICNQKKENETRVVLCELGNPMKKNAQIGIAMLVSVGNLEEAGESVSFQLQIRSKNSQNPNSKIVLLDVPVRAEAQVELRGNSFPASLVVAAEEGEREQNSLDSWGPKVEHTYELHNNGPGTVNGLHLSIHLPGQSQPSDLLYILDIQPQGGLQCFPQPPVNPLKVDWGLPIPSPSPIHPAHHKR
Integrin alpha-IIb/beta-3, sequence (P08514 891-1039 limits assumed): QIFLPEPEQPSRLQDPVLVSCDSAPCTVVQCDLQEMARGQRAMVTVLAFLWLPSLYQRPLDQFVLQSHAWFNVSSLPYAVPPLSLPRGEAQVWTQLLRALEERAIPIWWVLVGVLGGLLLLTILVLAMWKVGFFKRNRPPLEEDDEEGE

Row | SMILES | IC50 [1] [nM] | IC50 (Cavia porcellus) [nM] | IC50 (Homo sapiens) [nM]
1 | N=C(N)c1ccc(N2CCN(c3ccc(CC(=O)O)cc3)CC2)cc1 | 1000 | – | –
2 | N=C(N)c1ccc(N2CCN(Cc3cccc(OCC(=O)O)c3)CC2)cc1 | 3980 | – | –
3 | CN(CC(=O)c1ccc(OCC(=O)O)c(OCC(=O)O)c1)C(=O)c1ccc(C(=N)N)cc1 | 1 | 251 | –
4 | N=C(N)c1ccc(N2CCN(C3CCN(CC(=O)O)CC3)CC2)cc1 | 7.94 | 251 | 631
5 | N=C(N)c1ccc(N2CCN(c3ccc(OCCCC(=O)O)cc3)CC2)cc1 | > 10000 | – | –
6 | N=C(N)c1ccc(CN2CCN(c3ccc(CC(=O)O)cc3)CC2)cc1 | 2510 | – | –
7 | N=C(N)c1ccc(N2CCN(c3ccc(CCC(=O)O)cc3)CC2)cc1 | 25.1 | – | –
8 | N=C(N)c1ccc(N2CCN(c3ccc(OCC(=O)O)cc3)CC2)cc1 | 2 | 3160 | 1000
9 | N=C(N)c1ccc(N2CCN(c3cccc(OCC(=O)O)c3)CC2)cc1 | 2000 | – | –
10 | CC(C)(Oc1ccc(N2CCN(c3ccc(C(=N)N)cc3)CC2)cc1)C(=O)O | 1000 | – | –
11 | N=C(N)c1ccc(N2CCN(Cc3ccc(CC(=O)O)cc3)CC2)cc1 | 200 | – | –
12 | N=C(N)c1ccc(CN2CCN(c3cccc(OCC(=O)O)c3)CC2)cc1 | 15800 | – | –
13 | N=C(N)c1ccc(N2CCN(c3cccc(CC(=O)O)c3)CC2)cc1 | 1580 | – | –
14 | N=C(N)c1ccc(CN2CCN(c3cccc(CC(=O)O)c3)CC2)cc1 | 39800 | – | –
15 | N=C(N)c1ccc(N2CCN(Cc3cccc(CC(=O)O)c3)CC2)cc1 | 1260 | – | –
